# The supplement of paper PMC12137928
# Counter-ions that a name gives are not always drawn.
# Key:
# HCT116 [1] = test: efficacy (maximum % inhibition of viability vs DMSO); higher = more cytotoxic; settings: 72 h
# How it was run: (§1)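 Luminescence was read with CellTiter-Glo in HCT116 cells seeded at 250 per well in 1536-well plates. Signals were scaled between vehicle at 0% and positive control at -100%, then pattern-corrected. IC50 and maximal efficacy were obtained by fitting a four-parameter Hill equation.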
# HCT116 [2] = settings: 72 h
# How it was run: as §1
SMILES,IC50 cell viability (HCT116 [2]; ICRF193 0 nM),IC50 cell viability (HCT116 [2]; ICRF193 200 nM),efficacy (HCT116 [1]; ICRF193 0 nM),efficacy (HCT116 [1]; ICRF193 200 nM)
Nc1ncn([C@@H]2O[C@H](CO)[C@@H](O)[C@H]2O)c(=O)n1 [5-Azacitidine],8.2 µM,8.2 µM,121%,98.6%
C=C1CC[C@H](O)C/C1=C/C=C1\CCC[C@]2(C)[C@@H]([C@H](C)CCCC(C)(C)O)CC[C@@H]12 [Calcifediol (monohydrate)],> 45.8 µM,23.1 µM,,42.8%
CC(C)c1c(C(=O)Nc2ccccc2)c(-c2ccccc2)c(-c2ccc(F)cc2)n1CC[C@@H](O)C[C@@H](O)CC(=O)O [Atorvastatin calcium],18.3 µM,18.3 µM,60.2%,70.6%
CCCCc1oc2ccc(NS(C)(=O)=O)cc2c1C(=O)c1ccc(OCCCN(CCCC)CCCC)cc1 [Dronedarone hydrochloride],20.6 µM,29.1 µM,115%,68.2%
COCc1c(C(C)C)nc(C(C)C)c(/C=C/[C@@H](O)C[C@@H](O)CC(=O)O)c1-c1ccc(F)cc1 [Cerivastatin sodium],1.03 µM,0.92 µM,106%,102%
CC/N=C(\NCC)NCCCC[C@H](NC(=O)[C@H](CC(C)C)NC(=O)[C@@H](CCCCN/C(=N/CC)NCC)NC(=O)[C@H](Cc1ccc(O)cc1)NC(=O)[C@H](CO)NC(=O)[C@@H](Cc1cccnc1)NC(=O)[C@@H](Cc1ccc(Cl)cc1)NC(=O)[C@@H](Cc1ccc2ccccc2c1)NC(C)=O)C(=O)N1CCC[C@H]1C(=O)N[C@H](C)C(N)=O [Ganirelix],4.61 µM,5.17 µM,80.9%,82.7%
CC1=NN(c2ccc(C)c(C)c2)C(=O)/C1=N\Nc1cccc(-c2cccc(C(=O)O)c2)c1O [Eltrombopag olamine],6.51 µM,> 45.8 µM,41.9%,
Cc1c2oc3c(C)ccc(C(=O)N[C@@H]4C(=O)N[C@H](C(C)C)C(=O)N5CCC[C@H]5C(=O)N(C)CC(=O)N(C)[C@@H](C(C)C)C(=O)O[C@@H]4C)c3nc-2c(C(=O)N[C@@H]2C(=O)N[C@H](C(C)C)C(=O)N3CCC[C@H]3C(=O)N(C)CC(=O)N(C)[C@@H](C(C)C)C(=O)O[C@@H]2C)c(N)c1=O [Actinomycin D],0.0164 µM,0.0206 µM,48.1%,79.3%
Cc1cc(C(C#N)c2ccc(Cl)cc2)c(Cl)cc1NC(=O)c1cc(I)cc(I)c1O (centres undefined) [Closantel],9.2 µM,10.3 µM,70.3%,77.1%
COc1cc2nc(N3CCN(C(=O)C4COc5ccccc5O4)CC3)nc(N)c2cc1OC (centres undefined) [Doxazosin mesylate],29.1 µM,18.3 µM,106%,95.6%
COc1cc2c(c(OC)c1OC)-c1ccc(OC)c(=O)cc1[C@@H](NC(C)=O)CC2 [Colchicine],0.0326 µM,0.0326 µM,74%,69.5%
C#C[C@]1(O)CC[C@H]2[C@@H]3CCC4=Cc5oncc5C[C@]4(C)[C@H]3CC[C@@]21C [Danazol],> 45.8 µM,20.6 µM,,47.9%
C#Cc1cccc(Nc2ncnc3cc(OCCOC)c(OCCOC)cc23)c1 [Erlotinib],> 45.8 µM,14.6 µM,,50.4%
"O=C(Nc1ccc([N+](=O)[O-])cc1)Nc1ccc([N+](=O)[O-])cc1 [4,4'-Dinitrodiphenylurea]",> 45.8 µM,29.1 µM,,55.9%
O=c1c(-c2ccccc2)c1-c1ccccc1 [Diphenylcyclopropenone],29.1 µM,> 45.8 µM,100%,
C=C1CC[C@H](O)C/C1=C/C=C1\CCC[C@]2(C)[C@@H]([C@H](C)/C=C/[C@H](C)C(C)C)CC[C@@H]12 [ERGOCALCIFEROL],> 45.8 µM,29.1 µM,,56.2%
N=C(N)N/N=C/c1c(Cl)cccc1Cl [Guanabenz],23.1 µM,> 45.8 µM,45.5%,
CCCC(=O)Nc1ncnc2c1ncn2[C@@H]1O[C@@H]2COP(=O)(O)O[C@H]2[C@H]1OC(=O)CCC [BUCLADESINE],25.9 µM,> 45.8 µM,48.8%,
CCCCCCCCCCCCC[N+](C)(C)Cc1ccccc1 [BENZALKONIUM CHLORIDE],20.6 µM,23.1 µM,133%,124%
CC(C)c1nc(CN(C)C(=O)N[C@@H](CCN2CCOCC2)C(=O)N[C@H](CC[C@H](Cc2ccccc2)NC(=O)OCc2cncs2)Cc2ccccc2)cs1 [Cobicistat],14.6 µM,> 45.8 µM,40.1%,
CCOc1nc2cccc(C(=O)OC(C)OC(=O)OC3CCCCC3)c2n1Cc1ccc(-c2ccccc2-c2nn[nH]n2)cc1 (centres undefined) [Candesartan cilexetil (Atacand)],20.6 µM,29.1 µM,93%,100%
CN(C)CC/C=C1\c2ccccc2CSc2ccccc21 [Dosulepin hydrochloride],20.6 µM,29.1 µM,67.8%,69.1%

# Further lines, with some results ahead:
IC50 cell viability (HCT116 [2]; ICRF193 0 nM),IC50 cell viability (HCT116 [2]; ICRF193 200 nM),SMILES,efficacy (HCT116 [1]; ICRF193 0 nM),efficacy (HCT116 [1]; ICRF193 200 nM)
29.1 µM,8.2 µM,O=c1[nH]c(=O)n([C@H]2C[C@H](O)[C@@H](CO)O2)cc1C(F)(F)F [Trifluridine],49.1%,59%
16.4 µM,29.1 µM,CCOC(=O)O[C@]1(C(=O)COC(=O)CC)CC[C@H]2[C@@H]3CCC4=CC(=O)C=C[C@]4(C)[C@H]3[C@@H](O)C[C@@]21C [PREDNICARBATE],108%,93.8%
29.1 µM,20.6 µM,CO[C@H]1C[C@H](O[C@@H]2/C(C)=C/C[C@@H]3C[C@@H](C[C@]4(CC[C@H](C)[C@@H](C5CCCCC5)O4)O3)OC(=O)[C@@H]3C=C(C)/C(=N/O)[C@H]4OC/C(=C\C=C\[C@@H]2C)[C@]43O)O[C@@H](C)[C@@H]1O [SELAMECTIN],99.6%,109%
29.1 µM,> 45.8 µM,CC1(C)C(/C=C/C=C/C=C/C=C2\N(CCCCS(=O)(=O)O)c3ccc4ccccc4c3C2(C)C)=[N+](CCCCS(=O)(=O)[O-])c2ccc3ccccc3c21 [INDOCYANINE GREEN],43.6%,
> 45.8 µM,20.6 µM,CCCN(CCC)C(=O)C(CCC(=O)OCCCN1CCN(CCOC(=O)Cc2c(C)n(C(=O)c3ccc(Cl)cc3)c3ccc(OC)cc23)CC1)NC(=O)c1ccccc1 (centres undefined) [Proglumetacin],,48.5%
2.83 µM,2.53 µM,C[n+]1cc2c3c(ccc2c2ccc4cc5c(cc4c21)OCO5)OCO3 [Sanguinarine],98.2%,91.6%
1.3 µM,0.183 µM,CCCOc1ccc2[nH]c(NC(=O)OC)nc2c1 [Oxibendazole],43%,40.1%
0.73 µM,0.206 µM,CC[C@@]1(O)C(=O)OCc2c1cc1n(c2=O)Cc2cc3c(CN(C)C)c(O)ccc3nc2-1 [Topotecan hydrochloride],94.2%,102%
> 45.8 µM,29.1 µM,O=C1[C@@H]2[C@H]3CC[C@H](C3)[C@@H]2C(=O)N1C[C@@H]1CCCC[C@H]1CN1CCN(c2nsc3ccccc23)CC1 [Lurasidone (Hydrochloride)],,46.3%
0.0058 µM,0.00461 µM,CC(=O)O[C@H]1C(=O)[C@@]2(C)[C@H]([C@H](OC(=O)c3ccccc3)[C@]3(O)C[C@H](OC(=O)[C@H](O)[C@@H](NC(=O)c4ccccc4)c4ccccc4)C(C)=C1C3(C)C)[C@]1(OC(C)=O)CO[C@@H]1C[C@@H]2O [Paclitaxel],71.1%,61.8%
29.1 µM,18.3 µM,CC(=O)[C@H]1CC[C@H]2[C@@H]3CCC4=CC(=O)CC[C@]4(C)[C@H]3CC[C@]12C [Progesterone],43.3%,51.2%
3.66 µM,2.31 µM,CN(C)c1ccc2nc3ccc(=[N+](C)C)cc-3sc2c1 [Methylene blue],109%,91.6%
13 µM,10.3 µM,Oc1c(I)cc(I)c2cccnc12 [Iodoquinol],84.8%,91.7%
20.6 µM,18.3 µM,COc1ccc2c(c1)OC(C)(C)C(c1ccccc1)C2c1ccc(OCCN2CCCC2)cc1 (centres undefined) [Ormeloxifene],91%,81.5%
> 45.8 µM,16.4 µM,CCCOC(C(=O)OC1CCN(C)CC1)(c1ccccc1)c1ccccc1 [Propiverine hydrochloride],,45%
> 45.8 µM,29.1 µM,CN(C)CCC=C1c2ccccc2C(C)(C)c2ccccc21 [Melitracen hydrochloride],,61.4%
0.0651 µM,0.058 µM,CCC1=C[C@@H]2CN(C1)Cc1c([nH]c3ccccc13)[C@@](C(=O)OC)(c1cc3c(cc1OC)N(C)[C@H]1[C@@](O)(C(=O)OC)[C@H](OC(C)=O)[C@]4(CC)C=CCN5CC[C@]31[C@@H]54)C2 [Vinorelbine tartrate],64.9%,72.3%
23.1 µM,20.6 µM,C[C@](C#N)(COc1cc(C#N)ccc1C(F)(F)F)NC(=O)c1ccc(SC(F)(F)F)cc1 [Monepantel],98.1%,90.3%
25.9 µM,20.6 µM,Clc1cc(Cl)c(OCC#CI)cc1Cl [Haloprogin],89.7%,93.8%
0.164 µM,0.183 µM,CC[C@]1(O)C[C@H]2CN(CCc3c([nH]c4ccccc34)[C@@](C(=O)OC)(c3cc4c(cc3OC)N(C=O)[C@H]3[C@@](O)(C(=O)OC)[C@H](OC(C)=O)[C@]5(CC)C=CCN6CC[C@]43[C@@H]65)C2)C1 [Vincristine],70.2%,63.5%
> 45.8 µM,18.3 µM,CN1CCC(CN2c3ccccc3Sc3ccccc32)C1 (centres undefined) [Methdilazine hydrochloride],,53.5%
20.6 µM,23.1 µM,C#C[C@]1(O)CC[C@H]2[C@@H]3CCc4cc(OC5CCCC5)ccc4[C@H]3CC[C@@]21C [Quinestrol],55%,56.3%
29.1 µM,20.6 µM,CCSc1ccc2c(c1)N(CCCN1CCN(C)CC1)c1ccccc1S2 [Thiethylperazine dimalate],102%,101%
23.1 µM,25.9 µM,COC(=O)C1=C(C)NC(COC(N)=O)=C(C(=O)OC(C)C)C1c1cccc(Cl)c1Cl (centres undefined) [Lemildipine],76.8%,76.7%
20.6 µM,29.1 µM,CN(C)CCOc1ccc(/C(=C(/CCCl)c2ccccc2)c2ccccc2)cc1 [Toremifene citrate],128%,104%
20.6 µM,29.1 µM,Nc1ccc2cc3ccc(N)cc3nc2c1 [Proflavin hemisulfate],95.1%,93.6%
20.6 µM,29.1 µM,CCC[C@H](NC(=O)[C@@H]1[C@H]2CCC[C@H]2CN1C(=O)[C@@H](NC(=O)[C@@H](NC(=O)c1cnccn1)C1CCCCC1)C(C)(C)C)C(=O)C(=O)NC1CC1 [Telaprevir (VX-950)],80.7%,74.5%
29.1 µM,20.6 µM,Clc1ccc(CO/N=C(\Cn2ccnc2)c2ccc(Cl)cc2Cl)c(Cl)c1 [Oxiconazole nitrate],104%,101%
